Entries after “also recorded” stand apart in the source; their conditions may differ. Bridge positions count the residues as written; N and C are the ends. Ends that are not written are not given here. Peptide text beside a SMILES is read from it.
B1: FcLoop-L2-OsK1-L2: OsK1 inserted into the human IgG1 Fc loop with 2-Gly linkers (protein)
chain: MDKTHTCPPCPAPELLGGPSVFLFPPKPKDTLMISRTPEVTCVVVDVSHEDPEVKFNWYVDGVEVHNAKTKPREEQYNSTYRVVSVLTVLHQDWLNGKEYKCKVSNKALPAPIEKTISKAKGQPREPQVYTLPPSRDELGGGVIINVKCKISRQCLEPCKKAGMRFGKCMNGKCHCTPKGGTKNQVSLTCLVKGFYPSDIAVEWESNGQPENNYKTTPPVLDSDGSFFLYSKLTVDKSRWQQGNVFSCSVMHEALHNHYTQKSLSLSPGK
modifications: Definition of Artificial Sequence: Synthetic protein
B2: FcLoop-L2-ShK-L2: ShK inserted into the human IgG1 Fc loop with 2-Gly linkers (protein)
chain: MDKTHTCPPCPAPELLGGPSVFLFPPKPKDTLMISRTPEVTCVVVDVSHEDPEVKFNWYVDGVEVHNAKTKPREEQYNSTYRVVSVLTVLHQDWLNGKEYKCKVSNKALPAPIEKTISKAKGQPREPQVYTLPPSRDELGGRSCIDTIPKSRCTAFQCKHSMKYRLSFCRKTCGTCGGTKNQVSLTCLVKGFYPSDIAVEWESNGQPENNYKTTPPVLDSDGSFFLYSKLTVDKSRWQQGNVFSCSVMHEALHNHYTQKSLSLSPGK
modifications: Definition of Artificial Sequence: Synthetic protein
B3: MGGHHHHHHGGGPSVFLFPPKPKDTLMISRTPEVTCVVVDVSHEDPEVKFNWYVDGVEVHNAKTKPREEQYNSTYRVVSVLTVLHQDWLNGKEYKCKVSNKALPAPIEKTISGGGGSGGGGSGVIINVKCKISRQCLEPCKKAGMRFGKCMNGKCHCTPK (protein)
chain: MGGHHHHHHGGGPSVFLFPPKPKDTLMISRTPEVTCVVVDVSHEDPEVKFNWYVDGVEVHNAKTKPREEQYNSTYRVVSVLTVLHQDWLNGKEYKCKVSNKALPAPIEKTISGGGGSGGGGSGVIINVKCKISRQCLEPCKKAGMRFGKCMNGKCHCTPK

How the values were obtained:
[1] = target: T1, human Kv1.1 (HEK293) (Homo sapiens, UniProt Q09470); format: cell-based
T1 construct: expressed in transfected cells; host or cells: HEK293
T1 sequence (Q09470 whole entry): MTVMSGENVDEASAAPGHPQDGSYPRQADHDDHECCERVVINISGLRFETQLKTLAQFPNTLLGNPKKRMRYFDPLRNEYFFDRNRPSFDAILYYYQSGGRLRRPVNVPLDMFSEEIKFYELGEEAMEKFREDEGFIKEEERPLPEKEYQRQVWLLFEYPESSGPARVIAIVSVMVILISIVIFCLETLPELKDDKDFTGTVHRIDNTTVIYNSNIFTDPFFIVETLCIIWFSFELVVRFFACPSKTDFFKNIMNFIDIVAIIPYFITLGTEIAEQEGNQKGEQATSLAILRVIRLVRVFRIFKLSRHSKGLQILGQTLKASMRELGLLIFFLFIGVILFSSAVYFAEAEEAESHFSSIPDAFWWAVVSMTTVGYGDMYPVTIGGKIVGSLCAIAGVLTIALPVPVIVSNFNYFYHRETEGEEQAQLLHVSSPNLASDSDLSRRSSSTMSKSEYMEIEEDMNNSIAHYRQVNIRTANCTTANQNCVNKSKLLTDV

[2] = target: T2, human Kv1.3 (CHO) (Homo sapiens, UniProt P22001); format: cell-based
T2 construct: expressed in transfected cells; host or cells: CHO
T2 sequence (P22001 whole entry): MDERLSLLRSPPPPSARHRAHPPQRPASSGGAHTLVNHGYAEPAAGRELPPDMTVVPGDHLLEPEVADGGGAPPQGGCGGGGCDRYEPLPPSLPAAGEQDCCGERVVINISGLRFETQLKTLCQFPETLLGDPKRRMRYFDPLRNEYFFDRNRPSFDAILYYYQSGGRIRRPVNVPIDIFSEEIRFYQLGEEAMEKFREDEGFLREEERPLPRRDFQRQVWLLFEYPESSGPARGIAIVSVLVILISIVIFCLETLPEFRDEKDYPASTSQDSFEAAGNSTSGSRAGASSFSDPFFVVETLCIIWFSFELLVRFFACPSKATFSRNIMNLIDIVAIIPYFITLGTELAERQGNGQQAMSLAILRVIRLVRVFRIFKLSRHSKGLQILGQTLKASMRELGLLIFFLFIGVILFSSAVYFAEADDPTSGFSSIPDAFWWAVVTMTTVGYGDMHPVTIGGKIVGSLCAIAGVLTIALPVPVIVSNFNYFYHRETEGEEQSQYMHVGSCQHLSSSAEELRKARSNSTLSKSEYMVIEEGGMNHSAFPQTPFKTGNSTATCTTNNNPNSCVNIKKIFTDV

[3] = test system: IL-2 production in human whole blood; conditions: for IC50: read-out: WB/IL-2 (IC50)
[4] = test system: IL-2R on T cells in human whole blood; format: cell-based
[5] = test system: CD40L on T cells in human whole blood; format: cell-based
[6] = test system: IFN-g production in human whole blood; format: cell-based; conditions: for IC50: read-out: WB/IFNg (IC50)
[7] = target: human Kv1.3 channel (Homo sapiens, UniProt P22001); format: cell-based
human Kv1.3 channel, sequence (P22001 whole entry): as above

Molecule	IC50 [6] [nM]	IC50 [3] [nM]	other results
CC[C@H](C)[C@@H]1NC(=O)[C@H](CCCCN)NC(=O)[C@@H](NC(=O)[C@H](CCCCN)NC(=O)[C@@H](NC(=O)[C@H](CC(N)=O)NC(=O)[C@@H](NC(=O)[C@@H](NC(=O)[C@@H](NC(=O)CN)C(C)C)[C@@H](C)CC)[C@@H](C)CC)C(C)C)CSSC[C@@H]2NC(=O)[C@H](CCCCN)NC(=O)CNC(=O)[C@H](Cc3ccccc3)NC(=O)[C@H](CCCNC(=N)N)NC(=O)[C@H](CCSC)NC(=O)CNC(=O)[C@H](C)NC(=O)[C@H](CCCCN)NC(=O)[C@H](CCCCN)NC(=O)[C@@H]3CSSC[C@@H](C(=O)N[C@H](C(=O)N4CCC[C@H]4C(=O)N[C@@H](CCCCN)C(=O)O)[C@@H](C)O)NC(=O)[C@H](Cc4c[nH]cn4)NC(=O)[C@H](CSSC[C@H](NC(=O)[C@H](CCC(N)=O)NC(=O)[C@H](CCCNC(=N)N)NC(=O)[C@H](CO)NC1=O)C(=O)N[C@@H](CC(C)C)C(=O)N[C@@H](CCC(=O)O)C(=O)N1CCC[C@H]1C(=O)N3)NC(=O)[C@H](CCCCN)NC(=O)CNC(=O)[C@H](CC(N)=O)NC(=O)[C@H](C)NC2=O [OSK1[Ala-29]] (H-GVIINVKCKISRQCLEPCKKAGMRFGKCANGKCHCTPK-OH; disulfide 8-28, 14-33, 18-35)	–	–	selectivity over Kv1.1 by IonWorks (in words) [1]: improved selectivity over Kv1.1; inhibition of the Kv1.3 current by IonWorks (in words) [2]: potent inhibition of the Kv1.3 current; potency relative to cyclosporin A in blocking the cytokine response [3]: several orders of magnitude more potent
Fc-L10-ShK[2-35]: human IgG1 Fc fused via 10 amino acid linker to ShK[2-35]	–	–	thapsigargin-induced upregulation of the IL-2R on T cells (in words) [4]: blocked; thapsigargin-induced upregulation of CD40L on T cells (in words) [5]: blocked; thapsigargin-induced IFN-g production (in words) [6]: suppressed; also recorded: blocked; stability in whole blood [3]: stable in whole blood at 37 °C for up to 48 hours
Fc-L-KTX1: bacterially expressed Fc-linker-KTX1 peptibody	–	–	block of human Kv1.3 current (in words) [7]: concentration dependent block
GGGGSGVIINVKCKISRQCLEPCKKAGMRFGKCMNGKCHCTPK [compound 1395]	2.2	1.36	–
GIINVKCKISAQCLKPCRDAGMRFGKCMNGKCACTPK [compound 4916]	2.24	1.5	–
GVIINVKCKISAQCLKPCKDAGMRFGKCMNGKCHCTPK [compound 1392]	0.092	0.041	–
GVIINVKCKISRQCLKPCKDAGMRFGKCMNGKCACTPK [compound 4990]	26.6	65.5	–
GVIINVKCKISRQCLKPCKDAGMRFGKCMNGKCHC [compound 1396]	6.99	3.94	–
GVIINVKCKISRQCLKPCKDAGMRFGKCMNGKCHCGGG [compound 1274]	3.64	2.64	–
GVIINVKCKISRQCLKPCKDAGMRFGKCMNGKCHCTPK [compound 296]	1.32	1.58	–
GVIINVKCKISRQCLKPCKDAGMRFGKCMNGKCHCYPK [compound 298]	0.923	0.639	–
IbTx: BKCa channel inhibitor peptide, Bachem (QFTDVDCSVSKECWSVCKDLFGVDRGKCMGKKCRCYQ; Definition of Artificial Sequence: Synthetic peptide) [reference compound]	–	–	thapsigargin-induced upregulation of the IL-2R on T cells (in words) [4]: no significant activity; thapsigargin-induced upregulation of CD40L on T cells (in words) [5]: no significant activity; thapsigargin-induced IFN-g production (in words) [6]: no significant activity; thapsigargin-induced IL-2 production (in words) [3]: no significant activity
SEQ ID No: 4989: OSK1 analog without beta strand 1 (labeled des 1-7), Table 42 (CKISRQCLKPCKDAGMRFGKCMNGKCHC-NH2; ends and bridges not checked)	–	–	blockade of the whole blood cytokine response (IL-2, IFNg), in words [3]: still retain activity in blocking inflammation
B1	–	–	IC50 values, whole blood cytokine response [3]: pM range; blockade of the whole blood cytokine response (IL-2, IFNg), in words [3]: potent blockade of the whole blood cytokine response
B2	–	–	IC50 values, whole blood cytokine response [3]: pM range; blockade of the whole blood cytokine response (IL-2, IFNg), in words [3]: potent blockade of the whole blood cytokine response
B3	55.2	38.5	–

— US7825093B2 (priority 2006, dated 2010)
